Consider one compound from US7468380B2, “Nitrogen-containing aromatic derivatives” (Eisai R&D Management Co., Ltd., priority 2002, dated 2008).

In the assay the test system is VEGF high-expressing pancreatic cancer cells (KP-1/VEGF). Nature of the assay: Antitumor activity on KP-1/VEGF cells in subcutaneous xenograft models. In kind it is in vivo, mouse. Conditions: 60 mg/kg/day, oral twice a day, 2 weeks, Balb/c (nu/nu) mice. As for the experimental part: VEGF high-expressing pancreatic cancer cells (KP-1/VEGF) suspended in PBS at a concentration of 1×10^7 cells/ml were transplanted under the right flank skin of 6-week-old female Balb/c (nu/nu) mice in a volume of 0.1 ml. When the tumor volume reached approximately 100 mm^3, the test substance was orally administered twice a day over a period of 2 weeks with a schedule of 5 days per week. The test substance was suspended in 0.5% methyl cellulose for an administered volume of 0.1 ml/10 g body weight. The tumor size was measured twice a week using a micrometer caliper. The tumor volume was determined by measuring the long and short diameters of the tumor with a micrometer caliper, and calculating ½×(long diameter×short diameter×short diameter). The experiment was conducted using 10 mice in the control (solvent-administered) group and 5 mice in each test substance-administered group.

Take `CNC(=O)n1ccc2cc(Oc3ccnc(NC(=O)N4CCC(N5CCCC5)CC4)c3)ccc21` [Example 46, N1-Methyl-5-(2-(((4-(pyrrolidin-1-yl)piperidin-1-yl)carbonyl)amino)pyridin-4-yloxy)-1H-1-indolecarboxamide]: the “proportion of the tumor volume to that of control” value came out at 60.0%.
